Assay results from patent US8158340B2, “Methods for detecting conformational changes in bioentities” (Corning Incorporated, priority 2005, dated 2012).
Counter-ions that a name gives are not always drawn.

Key:
H.S.A. [1] = molecular target: T1, H.S.A. (Homo sapiens, UniProt P02768); experiment: Tryptic digestion of H.S.A. after chemical modification; format: biochemical; details: 5 minute treatment of 2,3-butanedione; FIG. 20
Text: In this type of assay, the digestion signal can be used as a means for screening large compound libraries for modulators of digestion (i.e. inhibitors or enhancers). The digestion inhibitors could be directed against-any lytic agent including but not limited to peptidases (as in the Caspase assay), proteases, nucleases, glucuronidase, glucosidase, lipases and the like. The assay is capable of detecting small molecule inhibitors of digestion of any molecular weight size. […] The extent to which an inhibitor can prevent digestion is assayed. […] The bar in FIG. 20, labeled 2,3-butanedione represents the net tryptic digestion of H.S.A. after a 5 minute treatment of 2,3-butanedione. The chemical 2,3-butanedione is an effective chemical modifier of amino acids such as lysine or arginine and is known in the art as an effective inhibitor of trypsin digestion via target modification.

H.S.A. [2] = molecular target: T1, H.S.A.; experiment: Percent crosslinking of H.S.A. with glutaraldehyde in presence of denaturants; format: biochemical; details: as the concentration of denaturing agent increased; FIGS. 7-10
Description: The fractional amount of chemical crosslinking was measured by taking the ratio of added crosslinker attached to the protein relative to amount of initial protein on the sensor. Initially, protein is immobilized and washed on the Epic™ sensor and then measured for amount of immobilized protein. The protein is exposed to glutaraldehyde with a specified solution condition. The mass change that resulted from crosslinking is recorded again on the Epic™ system. The ratio of picometer change by crosslinker (due to mass increase) to mass of protein immobilized (as measured by initial change in picometer due to protein immobilization) is referred to as the fractional amount of crosslinking (% XL or % crosslinking), which is depicted in FIG. 6. This mass change by chemical crosslinking provides a “snap shot” of the conformational state accessible to cross linker.
As a protein or bioentity is denatured it should unfold and thereby increase the number of available sites for crosslinking.

Calmodulin (CAM) = molecular target: T2, Calmodulin (CAM) (Homo sapiens, UniProt P0DP23); experiment: Surrogate binding: calcium additions to immobilized calmodulin on Epic biosensor; details: nine additions of 200 μM calcium chloride
T2 construct: purchased Upstate cell signaling solutions 14-368
Text: In this assay, the detection of macromolecular events whose mass changes are below detection due to sparingly low refractive index changes on a biosensor are consequentially assayed through surrogate associations that are then detectable by refractive index changes (i.e., any event (ion or not) which conveys a signature through association and is assayable on a biosensor).
Calmodulin (CAM) is a classic calcium binding protein. It binds four calcium ions per protein. At saturation, four ligands at a mass of 40 Daltons equals 160 Dalton is produced. This mass is expected to be below normal direct bind detection. However, upon calcium binding CAM undergoes a dramatic conformational transition. The physical changes by CAM play a crucial role in the functioning of this molecule in vivo. Fluorescent probes that sense hydrophobic transitions have been used for more than a decade. […] Calmodulin was chosen as the model system for the concept of surrogate direct binding because the binding of calcium to this protein should not be readily detectable on a biosensor (4×40 Dalton for calcium=160 Da).
CAM was ordered through Upstate cell signaling solutions (Cat #14-368). […] Yet, when a hydrophobic probe is employed (a surrogate direct bind probe), a calcium modulation interaction is detected.

equine cytochrome C = equine cytochrome C (Equus caballus, UniProt P00004); experiment: Catalytic digestion: trypsin digestion of immobilized cytochrome C with degrading catalyst; format: biochemical; details: 15 units of trypsin per well, FIG. 2
Description: Chem. Soc., 2004, 126:12833-12842 and tested as a degrading catalyst. On the Epic™ System, equine cytochrome C was chemically immobilized onto the EMA surface. The comparative trypsin digestion on the Epic™ system was measured. […] In these assays, 15 units of trypsin were used in each well. No titration was done for the enzyme, the cytochrome protein or the copper II porphyrin.

H.S.A. [3] = molecular target: T1, H.S.A.; experiment: Conformational mode locking: trypsin digestion of H.S.A. after glutaraldehyde crosslinking; format: biochemical; details: 10% glutaraldehyde in 0.1 M phosphate pH 7
Text: The use of covalent chemical crosslinking as a way of assaying conformational states or transitions of bioentities was investigated. H.S.A. was immobilized on an Epic™ sensor. The protein was crosslinked with glutaraldehyde under a variety of conditions (FIG. 5). Glutaraldehyde is a small molecular weight organic chemical (100 Dalton). It can undergo a variety of chemical crosslinking events with either itself or several amino acids. For this study, 10% glutaraldehyde in 0.1 M phosphate pH 7 was used. This was done to avoid the possibility of polymeric glut from forming. The amount of protein immobilized on the surface was also measured as well as the amount of chemical crosslinking and trypsin digestion. […] This effect was expected since crosslinking should affix the protein to the surface and render mass loss incapable. This finding should permit the ability to immobilize affinity capture molecules like antibodies and streptavidin and after crosslinking prevent their digestion. These crosslinked capture structures can then be used to specifically orient their antigens for antigen specific digestion.

trypsin [4] = experiment: Trypsin digestion of standard fluorescent substrate BZIP plus warfarin (specificity control); format: biochemical
Text: It is contemplated that any conformationally altered ligand-bioentity complex can be further confirmed or characterized through secondary analysis such as peptide digest mapping, deuterium exchange studies, Michaelis-Menten kinetic studies, circular dichroism, intrinsic fluorescence analysis, competition studies with fluorescence polarization assays and the like. In addition, the effects that a ligand or putative ligand may have on the digesting agent may be analyzed using a known non-binding agent or through kinetic analysis using fluorescent assays or absorbance assays. For example, rhodamine 110, bis-(CBZ-L-isoleucyl-L-prolyl-L-arginine amide), dihydrochloride (BZiPAR, Invitrogen Inc.) may be used in fluorescence assays with trypsin and a putative ligand. Similarly, Nα-benzoyl-L-arginine ethyl ester hydrochloride (BAEE) may also be used for spectrophotometric assays with trypsin and other proteases.
(§1) The data indicates several properties.

rabbit IgG = experiment: Trypsin digestion of rabbit IgG plus warfarin (specificity control); format: biochemical; details: generic protein control
Text: as §1

trypsin or chymotrypsin = experiment: Conformational assay: label-independent digestion of immobilized albumins; format: biochemical; details: relative to normal BSA; FIGS. 3 and 4
Description: In this assay, it was determined whether or not a label-independent detection assay can distinguish between different albumins by digestion with either trypsin or chymotrypsin on the Epic™ system.

trypsin [5] = experiment: Comparative trypsin digestion of myoglobin, apomyoglobin and heme-inserted apomyoglobin on Epic system; format: biochemical; details: approximately 23 minutes; for trypsin digestion (refractive index change): 15 units of trypsin in 1× PBS, FIGS. 18 and 19
Description: The heme inserted wells as well as the apoprotein and myoglobin wells were digested using 15 units of trypsin in 1× PBS. The digestion process was allowed to proceed for approximately 23 minutes with continuous monitoring of refractive index changes on the LID system. The hierarchy of digestion followed the following order; myoglobin (−250 pm)<apomyoglobin with heme (−350 pm)<apomyoglobin (−500 pm) (FIGS. 18 and 19). […] The difference between the native myoglobin and the heme inserted apomyoglobin may be a result of slight denaturation effects that were introduced in the preparation of the apomyoglobin protein.

T1 sequence (P02768 25-609): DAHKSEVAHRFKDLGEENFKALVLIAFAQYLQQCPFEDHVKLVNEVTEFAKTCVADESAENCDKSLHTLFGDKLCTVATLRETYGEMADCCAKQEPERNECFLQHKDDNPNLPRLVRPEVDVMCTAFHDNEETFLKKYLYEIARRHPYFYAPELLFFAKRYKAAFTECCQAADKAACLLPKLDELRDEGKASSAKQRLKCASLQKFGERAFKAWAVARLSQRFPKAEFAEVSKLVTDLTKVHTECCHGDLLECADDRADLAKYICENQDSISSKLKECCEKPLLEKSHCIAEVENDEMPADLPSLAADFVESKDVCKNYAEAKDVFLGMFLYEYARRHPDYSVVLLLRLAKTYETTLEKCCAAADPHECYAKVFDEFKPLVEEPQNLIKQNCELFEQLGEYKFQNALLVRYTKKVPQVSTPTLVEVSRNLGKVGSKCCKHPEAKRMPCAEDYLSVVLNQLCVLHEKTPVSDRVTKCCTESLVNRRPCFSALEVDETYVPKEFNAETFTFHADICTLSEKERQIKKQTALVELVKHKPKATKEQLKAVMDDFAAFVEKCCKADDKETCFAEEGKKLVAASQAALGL
Chain of equine cytochrome C (P00004 whole entry): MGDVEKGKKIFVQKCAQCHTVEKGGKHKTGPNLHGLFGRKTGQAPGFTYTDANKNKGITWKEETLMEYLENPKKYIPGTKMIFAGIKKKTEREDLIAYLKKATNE

Molecule: CC(=O)C(C)=O [2,3-butanedione]
- net tryptic digestion of H.S.A. after chemical modification (H.S.A. [1]): digestion is effected by chemical modification

Molecule: [Cl-].[Cl-].[Mg+2] [MgCl]
- percent crosslinking of H.S.A. with glutaraldehyde (H.S.A. [2]): increasing percent crosslinking

Molecule: [Cl-].[Na+] [NaCl]
- percent crosslinking of H.S.A. with glutaraldehyde (H.S.A. [2]): increasing percent crosslinking

Molecule: NC(N)=O [Urea]
- percent crosslinking of H.S.A. with glutaraldehyde (H.S.A. [2]): increasing percent crosslinking

Molecule: [Ca+2].[Cl-].[Cl-] [calcium chloride]
- binding detection of calcium to CAM with surrogate probe (Calmodulin (CAM); 100 μM ANS hydrophobic probe present): binding event
- direct bind detection of calcium to CAM (Calmodulin (CAM); CAM in 1×PBS without probe, relative to blocked wells): no binding data

Molecule: O=C(O)c1ccc(-c2c3nc(c(-c4ccc(C(=O)O)cc4)c4ccc([nH]4)c(-c4ccc(C(=O)O)cc4)c4nc(c(-c5ccc(C(=O)O)cc5)c5ccc2[nH]5)C=C4)C=C3)cc1.[Cu+2] [copper (II) tetra-(4-carboxyphenyl)porphyrin]
- trypsin digestion of cytochrome C with degrading catalyst (equine cytochrome C): significant enhancement of digestion

Molecule: O=CCCCC=O [glutaraldehyde]
- proteolytic (trypsin) digestion of H.S.A. after chemical crosslinking (H.S.A. [3]): dramatically inhibited/attenuated

Molecule: N=C(N)N [guanidine HCL]
- percent crosslinking of H.S.A. with glutaraldehyde (H.S.A. [2]): increasing percent crosslinking

Molecule: CC(=O)CC(c1ccccc1)c1c(O)c2ccccc2oc1=O (centres unmarked) [warfarin]
- reduction in trypsin digestion rate, BZIP plus warfarin (trypsin [4]): no such reduction in digestion rate was observed
- reduction in trypsin digestion rate, rabbit IgG plus warfarin (rabbit IgG): no such reduction in digestion rate was observed

Molecule: acetylated BSA: acetylated bovine serum albumin immobilized on the biosensor
- digestion profile of immobilized albumin (trypsin or chymotrypsin): dramatic enhanced digestion profile

Molecule: heme
- reduction in digestion of apomyoglobin caused by heme insertion (trypsin [5]; 15 units of trypsin): 140 picometer

Molecule: methylated BSA: methylated bovine serum albumin immobilized on the biosensor
- digestion profile of immobilized albumin (trypsin or chymotrypsin): dramatic reduction in digestion rates

B1: myoglobin: native horse myoglobin (protein, UniProt P68082 2-154, looked up)
Myoglobin: GLSDGEWQQVLNVWGKVEADIAGHGQEVLIRLFTGHPETLEKFDKFKHLKTEAEMKASEDLKKHGTVVLTALGGILKKKGHHEAELKPLAQSHATKHKIPIKYLEFISDAIIHVLHSKHPGDFGADAQGAMTKALELFRNDIAAKYKELGFQG
- trypsin digestion (refractive index change) (trypsin [5]): −250 pm

B2: apomyoglobin with heme: apomyoglobin after heme insertion with 2 μM hemin (protein, UniProt P68082 2-154, looked up)
Myoglobin: B1 Myoglobin
modifications: heme reconstituted
notes: apomyoglobin after heme insertion with 2 μM hemin
- trypsin digestion (refractive index change) (trypsin [5]): −350 pm

B3: apomyoglobin: horse apomyoglobin made by acid-acetone heme removal (protein, UniProt P68082 2-154, looked up)
Myoglobin: B1 Myoglobin
modifications: heme removed
notes: horse apomyoglobin made by acid-acetone heme removal
- trypsin digestion (refractive index change) (trypsin [5]): −500 pm
